The target of the experiment is T1, TrxR1 (Rattus norvegicus, UniProt O89049).
T1 sequence (O89049 1-499): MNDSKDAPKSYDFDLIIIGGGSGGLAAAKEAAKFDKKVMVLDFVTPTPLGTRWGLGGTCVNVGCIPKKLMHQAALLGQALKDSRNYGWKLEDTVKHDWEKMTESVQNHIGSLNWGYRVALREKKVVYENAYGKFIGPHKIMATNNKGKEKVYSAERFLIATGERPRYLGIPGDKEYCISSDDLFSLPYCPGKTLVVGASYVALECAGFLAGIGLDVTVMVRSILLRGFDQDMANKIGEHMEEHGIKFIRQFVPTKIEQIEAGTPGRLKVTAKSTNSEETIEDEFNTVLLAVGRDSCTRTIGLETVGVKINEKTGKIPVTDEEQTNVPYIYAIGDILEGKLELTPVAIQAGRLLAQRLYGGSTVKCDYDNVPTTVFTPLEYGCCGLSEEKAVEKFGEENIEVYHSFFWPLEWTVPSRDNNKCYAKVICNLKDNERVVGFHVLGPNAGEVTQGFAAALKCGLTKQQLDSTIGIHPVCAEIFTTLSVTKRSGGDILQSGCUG
The conditions noted are these: substrate of TrxR1, NADPH oxidation. The text has this: Reagents: Chaetocin, β-Nicotinamide adenine dinucleotide 2′-phosphate reduced tetrasodium salt hydrate (NADPH), rat liver thioredoxin reductase, 5,5′-dithiobis(2-nitrobenzoic acid) (DTNB), oxidized glutathione (GSSG), bovine insulin, gliotoxin, thioredoxin reductase assay kit, anti-actin antibody and Celytic lysis reagent were purchased from Sigma (St. Louis, Mo.); yeast glutathione reductase and Complete Protease Inhibitor Tablets from Roche (Indianapolis, Ind.); BCA protein from Pierce (Rockford, Ill.); oxidized E. coli thioredoxin and dithiothreitol (DTT) from Promega (Madison, Wis.); verruculogen from Calbiochem (San Diego, Calif.); 4-acetamido-4′-maleimidylstilbene-2,2′-disulfonic acid (AMS) and Lipofectamine-Plus from Invitrogen (Carlsbad, Calif.); chaetomin from Alexis Biochemicals (San Diego, Calif.); and anti-thioredoxin antibody from Cell Signaling (Beverly, Mass.). HeLa cells were obtained from ATCC.
Steady-state kinetics: The 100 μL reaction consisted of 100 mM potassium phosphate (pH 7.0), 10 mM EDTA, 0.0004 U/μL thioredoxin reductase and chaetocin or other compounds as indicated. The assay was carried out in a 96-well quartz plate and the oxidation of NADPH was measured as a change in absorption at 340 nm. The initial velocities of the reaction were calculated from the decrease in the absorbance between 0 and 5 min (slope), and on a pathlength of 0.3 cm and NADPH ε=6.22 mmol^−1*cm^−1*L. The velocity versus concentration data were then analyzed using SigmaPlot's Enzyme Kinetics 1.3 program (Systat Software, San Jose, Calif.).

On to `CN1C(=O)[C@@]23C[C@]4([C@]56C[C@@]78SS[C@@](CO)(C(=O)N7[C@H]5Nc5ccccc56)N(C)C8=O)c5ccccc5N[C@@H]4N2C(=O)[C@]1(CO)SS3` [chaetocin], for which the Km amounted to 4.6 ± 0.6 µM.

One may read the Km as the substrate concentration at which the rate is half of its maximum.
